Drawing on US6417375B1, “Furylphosphines and organometallic complexes containing them” (Rhodia Fiber & Resin Intermediates, priority 1998, dated 2002), this text covers solubility for 4 compounds.

One may read the solubility as the concentration that dissolves in the medium under given conditions. A low value points to a poorly soluble substance.

This series can be described thus: Solubility of the furylphosphine in water.

Structures are written as SMILES.

Turning to `O=C([O-])c1ccc(P(c2ccccc2)c2ccccc2)o1.[Na+]` [Example 1, sodium 2-(diphenylphosphino)furan-5-carboxylate], the solubility (23 °C) amounted to 250 mg/mL. With `O=P([O-])([O-])c1ccc(P(c2ccccc2)c2ccccc2)o1.[Na+].[Na+]` [Example 2, disodium 2-(diphenylphosphino)furan-5-phosphonate], for the setting “20 °C”, the solubility worked out at 680 mg/mL. In turn, `O=S([O-])c1ccc(P(c2ccccc2)c2ccccc2)o1.[Na+]` [Example 4, sodium 2-(diphenylphosphino)furan-5-sulphinate] registered a solubility (21 °C) of 205 mg/mL. In turn, `O=P(O)(O)c1ccc(P(c2ccccc2)c2ccc(P(=O)(O)O)o2)o1` [Example 3, tetrasodium 2,2′-phenylphosphine-diylbis(furan-5-phosphonate)] came in with a solubility (23 °C) of 1140 mg/mL.
